Source: patent US20200405696A1, “INHIBITORS OF INDOLEAMINE 2,3-DIOXYGENASE AND/OR TRYPTOPHAN 2,3-DIOXYGENASE” (IDORSIA PHARMACEUTICALS LTD, priority 2018, published 2020)

Columns and labels:
[1] = target: T1, Recombinant full-length human IDO1 (Homo sapiens, UniProt P14902); assay: IDO1 enzymatic assay (NFK quantified by LCMS); assay type: biochemical; conditions: 2 nM enzyme, 5 μM L-tryptophan, pH6.5, 30 minutes pre-incubation at RT; mean values when measured multiple times; read-out: hIDO activity (IC50 in nM)
T1 construct: Recombinant full-length human IDO1 with a N-terminal hexahistidine tag; hexahistidine (His6) (N); made in house; host or cells: E. coli
T1 sequence (P14902 whole entry): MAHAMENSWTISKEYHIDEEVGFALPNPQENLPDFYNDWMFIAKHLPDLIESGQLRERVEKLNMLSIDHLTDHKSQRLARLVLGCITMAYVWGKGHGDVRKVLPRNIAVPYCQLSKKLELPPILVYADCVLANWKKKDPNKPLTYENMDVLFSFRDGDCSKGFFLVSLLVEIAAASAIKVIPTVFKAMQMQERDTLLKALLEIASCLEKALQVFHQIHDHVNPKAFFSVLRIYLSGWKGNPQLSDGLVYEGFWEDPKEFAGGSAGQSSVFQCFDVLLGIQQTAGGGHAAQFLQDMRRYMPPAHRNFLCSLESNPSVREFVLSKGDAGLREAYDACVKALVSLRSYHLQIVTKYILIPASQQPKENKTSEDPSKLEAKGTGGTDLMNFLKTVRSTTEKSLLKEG
Procedure, shortened: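 IC50 comes from four-parameter logistic fits of duplicate data, with NFK quantified by LCMS and normalized to L-Trp-(indole-d5). Compound (0.5 nM–10 μM) was preincubated 30 min at RT with 2 nM E. coli-expressed IDO1 before a 30 min reaction with 5 μM tryptophan in pH 6.5 buffer containing ascorbate and methylene blue.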

[2] = target: T2, Recombinant human TDO comprising amino acids 19-407 (Homo sapiens, UniProt P48775); assay: TDO2 enzymatic assay (NFK quantified by LCMS); assay type: biochemical; conditions: 15 nM enzyme, 200 μM L-tryptophan, pH7, 30 minutes pre-incubation at RT; mean values when measured multiple times; read-out: hTDO activity (IC50 in nM)
T2 construct: Recombinant human TDO comprising amino acids 19-407 with a N-terminal hexahistidine tag; hexahistidine (His6) (N); made in house; host or cells: E. coli
T2 sequence (P48775 19-406 limits assumed): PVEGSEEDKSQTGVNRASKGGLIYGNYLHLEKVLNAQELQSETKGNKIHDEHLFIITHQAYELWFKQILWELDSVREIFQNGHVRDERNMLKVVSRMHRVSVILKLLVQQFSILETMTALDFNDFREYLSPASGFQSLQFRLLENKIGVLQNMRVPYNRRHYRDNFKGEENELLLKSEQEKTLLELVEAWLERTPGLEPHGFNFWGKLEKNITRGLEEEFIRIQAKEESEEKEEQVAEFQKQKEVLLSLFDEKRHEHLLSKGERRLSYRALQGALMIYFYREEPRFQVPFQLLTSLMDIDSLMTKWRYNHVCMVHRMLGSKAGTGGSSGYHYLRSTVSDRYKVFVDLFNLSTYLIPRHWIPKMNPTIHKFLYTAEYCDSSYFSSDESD
Procedure, shortened: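 NFK formed over 30 min at RT from 200 μM L-tryptophan was measured by LCMS, normalized to d5-tryptophan, after compound (0.5 nM–10 μM, duplicates, 0.6% DMSO) was preincubated 30 min with 15 nM recombinant His-tagged TDO 19-407 in phosphate buffer pH 7. IC50 from four-parameter logistic fit; repeats averaged.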

| Compound | IC50 [1] | IC50 [2] |
| --- | --- | --- |
| CCc1sc2cncn2c1C(O)c1cn(-c2ccc(OCC3(F)COC3)c(Cl)c2)nn1 (racemic) [Example 317, rac-{1-[3-Chloro-4-(3-fluoro-oxetan-3-ylmethoxy)-phenyl]-1H-[1,2,3]triazol-4-yl}-(2-ethyl-imidazo[5,1-b]thiazol-3-yl)-methanol] | 7.18 nM | > 10200 nM |
| CCc1sc2cncn2c1C(O)c1cn(-c2cc(Cl)c(OC)cc2F)nn1 (racemic) [Example 319, rac-[1-(5-Chloro-2-fluoro-4-methoxy-phenyl)-1H-[1,2,3]triazol-4-yl]-(2-ethyl-imidazo[5,1-b]thiazol-3-yl)-methanol] | 3.18 nM | 4430 nM |
| CCc1sc2cncn2c1C(O)c1cn(-c2cc(F)c(OC)cc2F)nn1 (racemic) [Example 321, rac-[1-(2,5-Difluoro-4-methoxy-phenyl)-1H-[1,2,3]triazol-4-yl]-(2-ethyl-imidazo[5,1-b]thiazol-3-yl)-methanol] | 2.13 nM | 3680 nM |
| COc1ccc(-n2nnc(C(O)c3c(C4CC4)sc4cncn34)c2C)c(C)c1 (racemic) [Example 326, rac-(2-Cyclopropyl-imidazo[5,1-b]thiazol-3-yl)-[1-(4-methoxy-2-methyl-phenyl)-5-methyl-1H-[1,2,3]triazol-4-yl]-methanol] | 16.9 nM | 9520 nM |
| COc1ccc(-n2cc(C(O)c3c(C4CC4)sc4cncn34)nn2)cc1F (racemic) [Example 327, rac-(2-Cyclopropyl-imidazo[5,1-b]thiazol-3-yl)-[1-(3-fluoro-4-methoxy-phenyl)-1H-[1,2,3]triazol-4-yl]-methanol] | 4.29 nM | > 10200 nM |
| CC(F)(F)c1sc2cncn2c1C(O)c1cn(-c2ccc(O)c(Cl)c2)nn1 (racemic) [Example 329, rac-2-Chloro-4-(4-{[2-(1,1-difluoro-ethyl)-imidazo[5,1-b]thiazol-3-yl]-hydroxy-methyl}-[1,2,3]triazol-1-yl)-phenol] | 2.49 nM | 9930 nM |
| COCc1ccc(-n2cc(C(O)c3c(C4CC4)sc4cncn34)nn2)cc1 (racemic) [Example 330, rac-(2-Cyclopropyl-imidazo[5,1-b]thiazol-3-yl)-[1-(4-methoxymethyl-phenyl)-1H-[1,2,3]triazol-4-yl]-methanol] | 31.6 nM | > 10200 nM |
| Oc1cc(F)c(-n2cc(C(O)c3c(C4CC4)sc4cncn34)nn2)cc1F (racemic) [Example 331, rac-4-{4-[(2-Cyclopropyl-imidazo[5,1-b]thiazol-3-yl)-hydroxy-methyl]-[1,2,3]triazol-1-yl}-2,5-difluoro-phenol] | 4.55 nM | 7180 nM |
| CCc1sc2cncn2c1C(O)c1cn(-c2cc(F)c(O)cc2F)nn1 (racemic) [Example 332, rac-4-{4-[(2-Ethyl-imidazo[5,1-b]thiazol-3-yl)-hydroxy-methyl]-[1,2,3]triazol-1-yl}-2,5-difluoro-phenol] | 5.37 nM | 2820 nM |
| COc1ccc(-n2nnc(C(O)c3c(C4CC4)sc4cncn34)c2I)cc1 (racemic) [Example 334, rac-(2-Cyclopropyl-imidazo[5,1-b]thiazol-3-yl)-[5-iodo-1-(4-methoxy-phenyl)-1H-[1,2,3]triazol-4-yl]-methanol] | 12.1 nM | 7280 nM |
| COc1ccc(-n2cc(C(O)c3c([C@@H]4C[C@@H]4F)sc4cncn34)nn2)cc1 (relative stereo) [Example 93, [2-(cis-2-Fluoro-cyclopropyl)-imidazo[5,1-b]thiazol-3-yl]-[1-(4-methoxy-phenyl)-1H-[1,2,3]triazol-4-yl]-methanol] | 25 nM | > 10200 nM |
| COc1ccc(-n2cc(C(O)c3c([C@@H]4C[C@H]4F)sc4cncn34)nn2)cc1 (relative stereo) [Example 94, [2-(trans-2-Fluoro-cyclopropyl)-imidazo[5,1-b]thiazol-3-yl]-[1-(4-methoxy-phenyl)-1H-[1,2,3]triazol-4-yl]-methanol] | 12.8 nM | > 10200 nM |
| CC(C)(O)CCOc1ccc(-n2cc(C(O)c3c([C@@H]4C[C@H]4F)sc4cncn34)nn2)cc1Cl (relative stereo) [Example 308, 4-[2-Chloro-4-(4-{[2-(trans-2-fluoro-cyclopropyl)-imidazo[5,1-b]thiazol-3-yl]-hydroxy-methyl}-[1,2,3]triazol-1-yl)-phenoxy]-2-methyl-butan-2-ol] | 12.7 nM | > 10200 nM |
| CC(C)(O)CCOc1ccc(-n2cc(C(O)c3c([C@@H]4C[C@@H]4F)sc4cncn34)nn2)cc1Cl (relative stereo) [Example 309, 4-[2-Chloro-4-(4-{[2-(cis-2-fluoro-cyclopropyl)-imidazo[5,1-b]thiazol-3-yl]-hydroxy-methyl}-[1,2,3]triazol-1-yl)-phenoxy]-2-methyl-butan-2-ol] | 17 nM | > 10200 nM |
| OC(c1cn(-c2ccc(OCc3ccccc3)c(F)c2)nn1)c1c([C@@H]2C[C@H]2F)sc2cncn12 (relative stereo) [Example 322, [1-(4-Benzyloxy-3-fluoro-phenyl)-1H-[1,2,3]triazol-4-yl]-[2-(trans-2-fluoro-cyclopropyl)-imidazo[5,1-b]thiazol-3-yl]-methanol] | 16.2 nM | > 10200 nM |

Continued by falling IC50 [1], values first:

| IC50 [1] | IC50 [2] | Compound |
| --- | --- | --- |
| 32.7 nM | > 10200 nM | COc1ccc(-n2nnc(C(O)c3c(C4CC4)sc4cncn34)c2F)cc1 (racemic) [Example 336, rac-(2-Cyclopropyl-imidazo[5,1-b]thiazol-3-yl)-[5-fluoro-1-(4-methoxy-phenyl)-1H-[1,2,3]triazol-4-yl]-methanol] |
| 12.1 nM | 9820 nM | CC1(c2sc3cncn3c2C(O)c2cn(-c3ccc(O)c(Cl)c3)nn2)CC1 (racemic) [Example 324, rac-2-Chloro-4-(4-{hydroxy-[2-(1-methyl-cyclopropyl)-imidazo[5,1-b]thiazol-3-yl]-methyl}-[1,2,3]triazol-1-yl)-phenol] |
| 3.82 nM | 1210 nM | CCc1sc2cncn2c1C(O)c1cn(-c2ccc(O)c(Cl)c2)nn1 (racemic) [Example 323, rac-2-Chloro-4-{4-[(2-ethyl-imidazo[5,1-b]thiazol-3-yl)-hydroxy-methyl]-[1,2,3]triazol-1-yl}-phenol] |
| 2.99 nM | > 10200 nM | COc1cc(F)c(-n2cc(C(O)c3c(C4CC4)sc4cncn34)nn2)cc1F (racemic) [Example 318, rac-(2-Cyclopropyl-imidazo[5,1-b]thiazol-3-yl)-[1-(2,5-difluoro-4-methoxy-phenyl)-1H-[1,2,3]triazol-4-yl]-methanol] |
| 2.1 nM | 7780 nM | CCc1sc2cncn2c1C(O)c1cn(-c2ccc(OCCCO)c(Cl)c2)nn1 (racemic) [Example 320, rac-3-(2-Chloro-4-{4-[(2-ethyl-imidazo[5,1-b]thiazol-3-yl)-hydroxy-methyl]-[1,2,3]triazol-1-yl}-phenoxy)-propan-1-ol] |
| 1.46 nM | > 10200 nM | COc1cc(F)c(-n2nnc(C(O)c3c(C4CC4)sc4cncn34)c2C)cc1Cl (racemic) [Example 333, rac-[1-(5-Chloro-2-fluoro-4-methoxy-phenyl)-5-methyl-1H-[1,2,3]triazol-4-yl]-(2-cyclopropyl-imidazo[5,1-b]thiazol-3-yl)-methanol] |
